We go through 1 molecule from paper PMC7486443, “Generation of Phenothiazine with Potent Anti-TLK1 Activity for Prostate Cancer Therapy” (iScience, 2020).

Some targets named below: ABL2 (Homo sapiens, UniProt P42684); ACVR1B (Homo sapiens, UniProt P36896); ALK (Homo sapiens, UniProt Q9UM73); BRAF (Homo sapiens, UniProt P15056); CSNK2A2 (Homo sapiens, UniProt P19784); EPHA4 (Homo sapiens, UniProt P54764); FGFR4 (Homo sapiens, UniProt P22455); MAP4K4 (Homo sapiens, UniProt O95819); PAK4 (Homo sapiens, UniProt O96013); SGK3 (Homo sapiens, UniProt Q96BR1); TLK1 (Homo sapiens, UniProt Q9UKI8).

Common to all, as to experiment: biochemical
Set-up in all cases: DiscoverX KINOMEscan scanMAX competition binding panel, single concentration, percent of control; remaining binding: dose or concentration left out as unconfirmed
What all share (settings): KINOMEscan binding, percent of control; read-out: Table S4_SCANMAX REPORT - related to Fig. 1 / Percent Control

The target in the next test is T1, ADCK3 (Homo sapiens, UniProt Q8NI60).
T1 construct: gene COQ8A

In another test the target is T2, LKB1 (Homo sapiens, UniProt Q15831).
T2 construct: gene STK11
T2 sequence (Q15831 whole entry): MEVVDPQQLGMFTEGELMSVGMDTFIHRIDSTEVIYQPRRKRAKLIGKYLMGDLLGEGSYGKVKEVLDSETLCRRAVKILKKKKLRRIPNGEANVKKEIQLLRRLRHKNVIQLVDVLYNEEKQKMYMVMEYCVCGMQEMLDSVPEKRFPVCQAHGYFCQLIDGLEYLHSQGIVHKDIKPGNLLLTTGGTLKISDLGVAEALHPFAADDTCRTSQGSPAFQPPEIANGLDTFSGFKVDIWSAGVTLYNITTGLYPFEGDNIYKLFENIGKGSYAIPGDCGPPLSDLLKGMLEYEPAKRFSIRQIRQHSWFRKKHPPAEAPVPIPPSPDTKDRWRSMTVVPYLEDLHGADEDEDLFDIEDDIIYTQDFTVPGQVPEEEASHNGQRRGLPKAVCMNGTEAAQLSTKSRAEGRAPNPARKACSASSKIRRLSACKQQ

Another test addresses T3, MINK (Homo sapiens, UniProt Q8N4C8).
T3 construct: gene MINK1

For the next test, the target named is T4, MST1 (Homo sapiens, UniProt Q13043).
T4 construct: gene STK4
T4 sequence (Q13043 whole entry): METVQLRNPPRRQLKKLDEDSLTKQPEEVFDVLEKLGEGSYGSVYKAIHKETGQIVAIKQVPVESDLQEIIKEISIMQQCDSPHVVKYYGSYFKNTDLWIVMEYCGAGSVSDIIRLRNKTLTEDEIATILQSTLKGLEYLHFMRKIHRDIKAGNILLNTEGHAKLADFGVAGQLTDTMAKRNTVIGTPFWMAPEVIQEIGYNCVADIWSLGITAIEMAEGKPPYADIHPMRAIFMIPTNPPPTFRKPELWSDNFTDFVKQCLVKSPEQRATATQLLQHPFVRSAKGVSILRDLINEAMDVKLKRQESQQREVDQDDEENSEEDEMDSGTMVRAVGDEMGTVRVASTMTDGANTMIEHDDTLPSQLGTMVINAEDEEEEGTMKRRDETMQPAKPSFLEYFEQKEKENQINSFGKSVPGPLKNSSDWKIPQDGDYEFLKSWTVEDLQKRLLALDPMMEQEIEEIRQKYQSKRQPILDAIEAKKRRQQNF

For another test, the target named is T5, MST3 (Homo sapiens, UniProt Q9Y6E0).
T5 construct: gene STK24
T5 sequence (Q9Y6E0 whole entry): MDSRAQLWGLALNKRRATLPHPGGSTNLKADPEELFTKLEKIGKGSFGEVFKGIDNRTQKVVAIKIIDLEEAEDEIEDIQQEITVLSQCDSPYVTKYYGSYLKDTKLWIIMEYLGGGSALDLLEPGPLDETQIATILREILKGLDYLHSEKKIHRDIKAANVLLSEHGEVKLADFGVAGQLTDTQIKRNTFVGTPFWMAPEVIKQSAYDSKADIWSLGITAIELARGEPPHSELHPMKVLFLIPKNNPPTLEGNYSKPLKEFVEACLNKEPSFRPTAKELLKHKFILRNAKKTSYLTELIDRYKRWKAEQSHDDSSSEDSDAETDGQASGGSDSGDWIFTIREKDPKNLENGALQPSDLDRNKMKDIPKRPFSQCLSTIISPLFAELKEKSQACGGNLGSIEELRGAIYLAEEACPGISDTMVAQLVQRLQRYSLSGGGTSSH

The target in test [1] is T6, RPS6KA4(Kin.Dom.1-N-terminal) (Homo sapiens, UniProt O75676).
T6 construct: Kin.Dom.1-N-terminal
T6 sequence (O75676 whole entry): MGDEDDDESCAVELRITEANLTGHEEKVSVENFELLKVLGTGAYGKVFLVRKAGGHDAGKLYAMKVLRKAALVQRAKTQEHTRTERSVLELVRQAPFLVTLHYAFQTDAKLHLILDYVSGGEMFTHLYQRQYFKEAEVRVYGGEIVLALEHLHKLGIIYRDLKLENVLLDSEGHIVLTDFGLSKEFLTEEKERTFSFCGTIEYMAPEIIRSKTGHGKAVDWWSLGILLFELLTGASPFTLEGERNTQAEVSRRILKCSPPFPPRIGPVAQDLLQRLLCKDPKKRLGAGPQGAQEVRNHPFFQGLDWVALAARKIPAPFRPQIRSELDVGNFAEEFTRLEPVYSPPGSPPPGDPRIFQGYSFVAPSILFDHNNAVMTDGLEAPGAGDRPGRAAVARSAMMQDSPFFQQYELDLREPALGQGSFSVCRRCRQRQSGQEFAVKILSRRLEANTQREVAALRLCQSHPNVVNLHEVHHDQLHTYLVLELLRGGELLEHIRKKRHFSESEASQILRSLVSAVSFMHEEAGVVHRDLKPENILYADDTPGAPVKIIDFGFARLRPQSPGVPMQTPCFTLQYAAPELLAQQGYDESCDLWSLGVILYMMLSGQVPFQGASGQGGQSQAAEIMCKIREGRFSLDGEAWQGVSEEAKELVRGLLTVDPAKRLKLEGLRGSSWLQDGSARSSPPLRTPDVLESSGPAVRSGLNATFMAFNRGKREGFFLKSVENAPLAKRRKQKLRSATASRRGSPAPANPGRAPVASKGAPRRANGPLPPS

Test [2] has as its target T7, RSK4(Kin.Dom.2-C-terminal) (Homo sapiens, UniProt Q9UK32).
T7 construct: gene RPS6KA6; Kin.Dom.2-C-terminal

T3 sequence (Q8N4C8 whole entry): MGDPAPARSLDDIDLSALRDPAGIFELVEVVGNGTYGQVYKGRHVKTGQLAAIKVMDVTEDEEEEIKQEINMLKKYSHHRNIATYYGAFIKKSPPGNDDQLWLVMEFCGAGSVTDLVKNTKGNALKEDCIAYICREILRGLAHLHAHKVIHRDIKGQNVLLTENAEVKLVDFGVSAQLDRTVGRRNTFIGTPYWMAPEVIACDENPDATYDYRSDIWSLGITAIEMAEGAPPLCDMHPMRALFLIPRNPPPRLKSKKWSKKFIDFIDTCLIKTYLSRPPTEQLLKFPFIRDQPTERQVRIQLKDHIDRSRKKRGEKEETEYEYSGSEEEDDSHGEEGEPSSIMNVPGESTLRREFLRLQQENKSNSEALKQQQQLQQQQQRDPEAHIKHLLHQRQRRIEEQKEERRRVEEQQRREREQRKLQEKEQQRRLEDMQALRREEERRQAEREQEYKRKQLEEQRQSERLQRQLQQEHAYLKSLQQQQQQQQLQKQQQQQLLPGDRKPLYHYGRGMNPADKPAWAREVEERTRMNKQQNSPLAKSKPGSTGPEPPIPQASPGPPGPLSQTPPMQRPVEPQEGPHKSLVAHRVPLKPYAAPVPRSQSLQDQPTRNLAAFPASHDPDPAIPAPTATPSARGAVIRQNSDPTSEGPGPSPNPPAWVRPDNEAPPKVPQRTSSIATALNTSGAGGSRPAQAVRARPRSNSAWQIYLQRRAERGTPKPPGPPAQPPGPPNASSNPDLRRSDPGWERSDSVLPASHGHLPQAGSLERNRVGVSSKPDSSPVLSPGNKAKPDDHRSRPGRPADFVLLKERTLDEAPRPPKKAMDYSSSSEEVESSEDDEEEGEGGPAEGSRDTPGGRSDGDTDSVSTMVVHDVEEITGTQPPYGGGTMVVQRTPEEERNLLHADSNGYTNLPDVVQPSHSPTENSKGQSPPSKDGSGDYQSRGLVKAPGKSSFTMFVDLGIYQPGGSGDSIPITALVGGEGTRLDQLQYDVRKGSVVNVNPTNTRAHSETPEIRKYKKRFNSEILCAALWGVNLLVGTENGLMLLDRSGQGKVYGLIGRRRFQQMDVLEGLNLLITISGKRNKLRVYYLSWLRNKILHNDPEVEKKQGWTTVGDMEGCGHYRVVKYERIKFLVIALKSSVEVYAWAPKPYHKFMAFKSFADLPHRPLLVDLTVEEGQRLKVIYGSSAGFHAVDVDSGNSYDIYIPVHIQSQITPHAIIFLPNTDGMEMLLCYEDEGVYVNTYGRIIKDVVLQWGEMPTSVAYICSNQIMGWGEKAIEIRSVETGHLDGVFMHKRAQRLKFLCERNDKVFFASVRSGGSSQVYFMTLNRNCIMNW
Sequence of ALK (Q9UM73 whole entry): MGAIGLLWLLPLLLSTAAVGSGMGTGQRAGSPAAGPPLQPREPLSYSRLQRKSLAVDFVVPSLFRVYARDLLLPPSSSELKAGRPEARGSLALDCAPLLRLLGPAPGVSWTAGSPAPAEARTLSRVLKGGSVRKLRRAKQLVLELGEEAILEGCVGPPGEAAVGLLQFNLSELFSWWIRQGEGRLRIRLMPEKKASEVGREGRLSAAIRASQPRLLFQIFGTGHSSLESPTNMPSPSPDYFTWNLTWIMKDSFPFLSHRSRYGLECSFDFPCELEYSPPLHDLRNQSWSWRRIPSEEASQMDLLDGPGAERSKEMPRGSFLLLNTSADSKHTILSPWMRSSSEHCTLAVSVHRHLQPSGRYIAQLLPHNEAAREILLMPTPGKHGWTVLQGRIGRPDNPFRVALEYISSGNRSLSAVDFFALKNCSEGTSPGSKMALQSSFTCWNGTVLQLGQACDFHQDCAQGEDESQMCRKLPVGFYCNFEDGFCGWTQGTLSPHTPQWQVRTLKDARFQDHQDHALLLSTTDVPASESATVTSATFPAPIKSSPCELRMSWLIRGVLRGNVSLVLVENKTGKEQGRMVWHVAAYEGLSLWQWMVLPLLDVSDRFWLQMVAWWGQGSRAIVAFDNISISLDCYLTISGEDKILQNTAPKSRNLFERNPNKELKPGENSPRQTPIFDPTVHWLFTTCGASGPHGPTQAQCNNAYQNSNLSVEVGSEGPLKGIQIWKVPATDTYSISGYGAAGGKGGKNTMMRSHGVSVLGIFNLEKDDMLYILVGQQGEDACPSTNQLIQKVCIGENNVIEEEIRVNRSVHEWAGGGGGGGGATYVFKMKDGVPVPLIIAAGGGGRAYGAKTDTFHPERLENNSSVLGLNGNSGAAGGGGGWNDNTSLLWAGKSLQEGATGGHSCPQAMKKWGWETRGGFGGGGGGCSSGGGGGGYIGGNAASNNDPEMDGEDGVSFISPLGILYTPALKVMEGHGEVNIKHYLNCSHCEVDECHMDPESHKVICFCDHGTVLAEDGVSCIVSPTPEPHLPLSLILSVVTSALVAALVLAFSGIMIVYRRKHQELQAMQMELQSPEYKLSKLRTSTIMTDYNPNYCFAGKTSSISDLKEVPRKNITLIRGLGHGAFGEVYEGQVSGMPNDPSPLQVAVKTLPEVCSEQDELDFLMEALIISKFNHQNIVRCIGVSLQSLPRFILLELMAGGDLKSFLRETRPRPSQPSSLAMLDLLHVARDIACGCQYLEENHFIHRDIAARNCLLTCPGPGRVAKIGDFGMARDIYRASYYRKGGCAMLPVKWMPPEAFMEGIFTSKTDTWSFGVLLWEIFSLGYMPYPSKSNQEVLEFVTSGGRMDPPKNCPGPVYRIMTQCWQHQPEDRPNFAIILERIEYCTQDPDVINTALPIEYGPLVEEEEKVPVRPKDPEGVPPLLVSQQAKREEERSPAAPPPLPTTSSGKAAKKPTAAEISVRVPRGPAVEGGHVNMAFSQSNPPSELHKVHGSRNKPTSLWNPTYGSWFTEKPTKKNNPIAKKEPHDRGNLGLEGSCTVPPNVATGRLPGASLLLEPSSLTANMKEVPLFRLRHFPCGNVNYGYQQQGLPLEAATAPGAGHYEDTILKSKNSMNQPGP

Turning to `c1ccc2c(c1)Sc1ccccc1N2CCN1CCOCC1` [J54], the remaining binding was determined as 100% on ABL2; 88% at ACVR1B; 100% on ADCK3; 59% at ALK; 100% on BRAF; 77% on CSNK2A2. In addition, the remaining binding at EPHA4 was determined as 100%; at FGFR4, 100%; at LKB1, 89%; at MAP4K4, 66%; at MINK it was 100%; at MST1, 100%. The remaining binding at MST3 is 100%; at PAK4, 99%; in test [1], 75%; in test [2], 99%; on SGK3, 94%; on TLK1, 16%.
